Test results as given in ChEMBL document CHEMBL3734692, “Design and synthesis of 2-oxindole based multi-targeted inhibitors of PDK1/Akt signaling pathway for the treatment of glioblastoma multiforme” (Eur J Med Chem, 2015).
Active and inactive are the calls of the source. The calls are words filed in the database; no cut-off is given here.

Experiments:
[1] = tested on: ANGM-CSS; assay: Reduction of neurosphere formation in human GSC derived from ANGM-CSS cells assessed as decrease in number and diameter of newly generated neurospheres at 1 uM after 9 days by microscopic analysis; assay type: functional, cell-based
[2] = molecular target: Tyrosine-protein kinase BTK (Homo sapiens) (UniProt Q06187); assay: Inhibition of BTK (unknown origin) at 1 uM by selectscreen kinase profiling assay in presence of ATP
[3] = molecular target: Casein kinase I isoform alpha (Homo sapiens) (UniProt P48729); assay: Inhibition of CK1alpha1 (unknown origin) at 1 uM by selectscreen kinase profiling assay in presence of ATP
Chain of Casein kinase I isoform alpha (Homo sapiens) (P48729 2-337 limits assumed): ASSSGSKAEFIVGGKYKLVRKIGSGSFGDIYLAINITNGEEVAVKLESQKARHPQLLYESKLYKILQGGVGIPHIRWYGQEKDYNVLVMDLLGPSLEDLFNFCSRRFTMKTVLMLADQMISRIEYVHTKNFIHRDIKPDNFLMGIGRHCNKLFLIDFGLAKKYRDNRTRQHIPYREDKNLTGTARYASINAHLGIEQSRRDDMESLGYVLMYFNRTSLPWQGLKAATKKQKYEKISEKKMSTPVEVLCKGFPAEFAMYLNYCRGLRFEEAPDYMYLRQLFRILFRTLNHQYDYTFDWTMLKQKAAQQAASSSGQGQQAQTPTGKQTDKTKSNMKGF

[4] = molecular target: Phosphatidylinositol 4-kinase beta (Homo sapiens) (UniProt Q9UBF8); assay: Inhibition of PI4Kbeta (unknown origin) at 1 uM by selectscreen kinase profiling assay in presence of ATP
[5] = Antiproliferative activity against human ANGM-CSS cells assessed as inhibition of cell growth after 96 hrs by WST1 assay; assay type: functional
[6] = Induction of apoptosis in human ANGM-CSS cells assessed as early apoptotic cells at 1 uM after 7 days by annexin V-FITC/7-AAD dual staining based cell analysis (reference value: 2.12%); assay type: functional
[7] = molecular target: RAC-alpha serine/threonine-protein kinase (Homo sapiens) (UniProt P31749); assay: Inhibition of recombinant Akt1 (unknown origin) incubated for 1 hr by Z'Lyte assay
[8] = Induction of apoptosis in human ANGM-CSS cells assessed as dead cells at 1 uM after 7 days by annexin V-FITC/7-AAD dual staining based cell analysis (reference value: 2.28%); assay type: functional
[9] = molecular target: Casein kinase II subunit alpha' (Homo sapiens) (UniProt P19784); assay: Inhibition of CK2alpha2 (unknown origin) at 1 uM by selectscreen kinase profiling assay in presence of ATP
Chain of Casein kinase II subunit alpha' (Homo sapiens) (P19784 whole entry, looked up): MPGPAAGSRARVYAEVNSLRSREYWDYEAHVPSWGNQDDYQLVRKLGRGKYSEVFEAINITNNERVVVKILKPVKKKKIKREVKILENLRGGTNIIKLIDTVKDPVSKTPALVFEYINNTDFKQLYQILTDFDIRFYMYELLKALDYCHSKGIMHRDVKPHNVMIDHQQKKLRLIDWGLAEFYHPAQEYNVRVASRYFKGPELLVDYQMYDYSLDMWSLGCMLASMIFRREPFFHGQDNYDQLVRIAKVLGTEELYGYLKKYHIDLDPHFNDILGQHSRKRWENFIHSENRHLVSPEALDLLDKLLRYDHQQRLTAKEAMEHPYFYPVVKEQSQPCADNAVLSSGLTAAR

[10] = species: Homo sapiens; assay: Inhibition of PKCbeta I (unknown origin) at 1 uM by selectscreen kinase profiling assay in presence of ATP
[11] = molecular target: Mitogen-activated protein kinase 3 (Homo sapiens) (UniProt P27361); assay: Inhibition of ERK1 (unknown origin) at 1 uM by selectscreen kinase profiling assay in presence of ATP
Chain of Mitogen-activated protein kinase 3 (Homo sapiens) (P27361 whole entry): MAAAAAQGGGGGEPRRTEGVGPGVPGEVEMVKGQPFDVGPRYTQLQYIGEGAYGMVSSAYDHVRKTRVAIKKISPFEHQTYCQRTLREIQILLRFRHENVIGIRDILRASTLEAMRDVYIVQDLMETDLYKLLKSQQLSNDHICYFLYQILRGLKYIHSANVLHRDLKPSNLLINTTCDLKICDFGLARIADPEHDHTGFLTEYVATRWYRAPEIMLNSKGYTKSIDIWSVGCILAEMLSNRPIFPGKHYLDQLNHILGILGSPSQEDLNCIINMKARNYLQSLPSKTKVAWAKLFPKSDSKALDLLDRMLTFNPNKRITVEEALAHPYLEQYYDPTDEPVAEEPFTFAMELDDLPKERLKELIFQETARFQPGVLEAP

[12] = tested on: ANGM-CSS; assay: Effect on human GSC morphology derived from ANGM-CSS cells assessed as reduction in area occupied by floating spheres at 1 uM after 7 days by microscopic analysis; assay type: functional, cell-based
[13] = molecular target: RAC-gamma serine/threonine-protein kinase (Homo sapiens) (UniProt Q9Y243); assay: Inhibition of AKT3 (unknown origin) at 1 uM by selectscreen kinase profiling assay in presence of ATP
[14] = molecular target: Interleukin-1 receptor-associated kinase 4 (Homo sapiens) (UniProt Q9NWZ3); assay: Inhibition of IRAK4 (unknown origin) at 1 uM by selectscreen kinase profiling assay in presence of ATP
Chain of Interleukin-1 receptor-associated kinase 4 (Homo sapiens) (Q9NWZ3 whole entry): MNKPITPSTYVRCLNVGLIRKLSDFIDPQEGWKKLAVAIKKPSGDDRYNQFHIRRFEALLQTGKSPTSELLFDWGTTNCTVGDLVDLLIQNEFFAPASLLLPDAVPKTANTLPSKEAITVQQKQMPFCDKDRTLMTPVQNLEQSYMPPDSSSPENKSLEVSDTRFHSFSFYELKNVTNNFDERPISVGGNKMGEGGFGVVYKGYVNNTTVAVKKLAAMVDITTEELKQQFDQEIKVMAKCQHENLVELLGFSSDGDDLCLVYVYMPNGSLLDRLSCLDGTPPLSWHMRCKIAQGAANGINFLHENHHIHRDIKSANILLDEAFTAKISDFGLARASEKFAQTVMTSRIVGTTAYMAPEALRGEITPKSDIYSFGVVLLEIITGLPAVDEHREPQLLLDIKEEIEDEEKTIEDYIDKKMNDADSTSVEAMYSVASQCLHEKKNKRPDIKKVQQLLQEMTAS

[15] = Antiproliferative activity against human ANGM-CSS cells assessed as inhibition of cell growth after 72 hrs by WST1 assay; assay type: functional
[16] = molecular target: Mitogen-activated protein kinase 9 (Homo sapiens) (UniProt P45984); assay: Inhibition of JNK2 (unknown origin) at 1 uM by selectscreen kinase profiling assay in presence of ATP
Chain of Mitogen-activated protein kinase 9 (Homo sapiens) (P45984 whole entry, looked up): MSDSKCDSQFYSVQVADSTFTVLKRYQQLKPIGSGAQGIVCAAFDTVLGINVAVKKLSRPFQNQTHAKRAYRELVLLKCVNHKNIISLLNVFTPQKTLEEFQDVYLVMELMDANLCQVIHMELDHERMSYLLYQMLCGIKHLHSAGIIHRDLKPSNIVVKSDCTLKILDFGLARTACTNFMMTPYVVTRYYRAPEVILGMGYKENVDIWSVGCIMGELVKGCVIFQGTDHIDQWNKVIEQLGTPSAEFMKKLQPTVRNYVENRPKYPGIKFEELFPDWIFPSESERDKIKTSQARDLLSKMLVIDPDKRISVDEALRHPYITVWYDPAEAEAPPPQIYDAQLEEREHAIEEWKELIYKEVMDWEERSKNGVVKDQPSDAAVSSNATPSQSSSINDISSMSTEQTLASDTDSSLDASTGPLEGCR

[17] = molecular target: T1, Cyclin-dependent kinase 5/CDK5 activator 1 (Homo sapiens) (UniProt Q00535+Q15078); assay: Inhibition of CDK5/p35 (unknown origin) at 1 uM by selectscreen kinase profiling assay in presence of ATP; assay type: protein-complex assay
T1 sequence (Q00535 whole entry): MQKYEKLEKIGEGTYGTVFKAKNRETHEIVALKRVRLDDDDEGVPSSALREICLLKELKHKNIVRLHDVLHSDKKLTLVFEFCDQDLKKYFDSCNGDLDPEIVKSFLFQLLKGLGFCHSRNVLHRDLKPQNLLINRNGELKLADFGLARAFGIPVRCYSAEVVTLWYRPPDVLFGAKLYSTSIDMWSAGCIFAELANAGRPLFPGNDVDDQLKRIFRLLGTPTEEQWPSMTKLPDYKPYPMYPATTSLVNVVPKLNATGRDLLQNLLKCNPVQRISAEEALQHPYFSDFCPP
T1 sequence (Q15078 99-307 partner limits assumed): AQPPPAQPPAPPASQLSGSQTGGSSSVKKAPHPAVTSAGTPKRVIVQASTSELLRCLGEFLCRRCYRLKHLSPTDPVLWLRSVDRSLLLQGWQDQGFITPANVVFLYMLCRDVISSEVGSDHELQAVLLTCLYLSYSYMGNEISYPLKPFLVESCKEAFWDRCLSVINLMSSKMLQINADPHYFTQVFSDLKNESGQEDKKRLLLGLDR

[18] = molecular target: Protein kinase C delta type (Homo sapiens) (UniProt Q05655); assay: Inhibition of PKCdelta (unknown origin) at 1 uM by selectscreen kinase profiling assay in presence of ATP
Chain of Protein kinase C delta type (Homo sapiens) (Q05655 whole entry, looked up): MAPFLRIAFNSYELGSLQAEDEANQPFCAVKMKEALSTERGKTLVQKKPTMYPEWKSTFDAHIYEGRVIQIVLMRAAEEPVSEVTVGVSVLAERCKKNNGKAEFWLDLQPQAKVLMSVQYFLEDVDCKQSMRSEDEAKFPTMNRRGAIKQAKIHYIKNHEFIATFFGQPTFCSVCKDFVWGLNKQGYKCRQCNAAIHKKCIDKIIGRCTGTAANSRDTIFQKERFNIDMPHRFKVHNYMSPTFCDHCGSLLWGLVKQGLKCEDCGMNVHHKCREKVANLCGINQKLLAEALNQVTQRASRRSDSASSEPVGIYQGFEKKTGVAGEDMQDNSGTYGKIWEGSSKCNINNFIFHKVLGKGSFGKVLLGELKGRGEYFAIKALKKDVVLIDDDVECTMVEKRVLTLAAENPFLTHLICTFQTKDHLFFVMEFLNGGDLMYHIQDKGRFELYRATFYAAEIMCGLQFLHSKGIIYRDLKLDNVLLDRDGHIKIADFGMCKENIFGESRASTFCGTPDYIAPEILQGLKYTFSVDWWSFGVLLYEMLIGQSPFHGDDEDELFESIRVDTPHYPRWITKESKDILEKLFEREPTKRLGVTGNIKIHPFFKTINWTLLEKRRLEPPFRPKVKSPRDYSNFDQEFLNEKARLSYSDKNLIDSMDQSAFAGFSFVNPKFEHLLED

[19] = molecular target: T2, Glycogen synthase kinase-3 alpha (Homo sapiens, UniProt P49840); assay: Inhibition of GSK3alpha (unknown origin) in presence of 10 uM ATP incubated for 1 hr by Z'Lyte assay
[20] = molecular target: CDK2/Cyclin A2 (Homo sapiens) (UniProt P24941+P20248); assay: Inhibition of CDK2/cyclin A (unknown origin) at 1 uM by selectscreen kinase profiling assay in presence of ATP; assay type: protein-complex assay
[21] = Antiproliferative activity against human U118MG cells assessed as inhibition of cell growth after 120 hrs by WST1 assay; assay type: functional; conditions: U-118-MG
[22] = molecular target: Serine/threonine-protein kinase mTOR (Homo sapiens) (UniProt P42345); assay: Inhibition of mTOR (unknown origin) at 1 uM by selectscreen kinase profiling assay in presence of ATP
[23] = tested on: ANGM-CSS; assay: Effect on human GSC morphology derived from ANGM-CSS cells assessed as outgrowth of cellular processes at 1 uM after 7 days by microscopic analysis; assay type: functional, cell-based
[24] = molecular target: Glycogen synthase kinase-3 beta (Homo sapiens, UniProt P49841); assay: Inhibition of GSK3beta (unknown origin) in presence of 10 uM ATP incubated for 1 hr by Z'Lyte assay
Chain of Glycogen synthase kinase-3 beta (P49841 whole entry): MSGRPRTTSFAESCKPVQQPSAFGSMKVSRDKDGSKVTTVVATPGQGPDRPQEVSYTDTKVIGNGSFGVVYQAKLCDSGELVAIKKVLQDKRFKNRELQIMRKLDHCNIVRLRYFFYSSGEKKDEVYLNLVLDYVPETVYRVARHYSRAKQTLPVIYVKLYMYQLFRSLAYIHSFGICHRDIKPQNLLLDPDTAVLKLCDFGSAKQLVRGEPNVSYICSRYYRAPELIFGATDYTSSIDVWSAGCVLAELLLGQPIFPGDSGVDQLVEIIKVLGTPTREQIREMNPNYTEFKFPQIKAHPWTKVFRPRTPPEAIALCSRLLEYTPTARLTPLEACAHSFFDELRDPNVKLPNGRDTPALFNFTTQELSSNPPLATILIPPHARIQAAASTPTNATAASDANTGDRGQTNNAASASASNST

[25] = Induction of apoptosis in human ANGM-CSS cells assessed as late apoptotic cells at 1 uM after 7 days by annexin V-FITC/7-AAD dual staining based cell analysis (reference value: 3.39%); assay type: functional
[26] = Antiproliferative activity against human U118MG cells assessed as inhibition of cell growth after 72 hrs by WST1 assay; assay type: functional; conditions: U-118-MG
[27] = tested on: ANGM-CSS; assay: Induction of human GSC differentiation derived from ANGM-CSS cells assessed as down regulation of CD133 mRNA expression at 1 uM after 7 days by RT-PCR analysis; assay type: functional, cell-based
[28] = Antiproliferative activity against human U118MG cells assessed as inhibition of cell growth after 96 hrs by WST1 assay; assay type: functional; conditions: U-118-MG
[29] = molecular target: Tyrosine-protein kinase JAK1 (Homo sapiens) (UniProt P23458); assay: Inhibition of JAK1 (unknown origin) at 1 uM by selectscreen kinase profiling assay in presence of ATP
Chain of Tyrosine-protein kinase JAK1 (Homo sapiens) (P23458 whole entry): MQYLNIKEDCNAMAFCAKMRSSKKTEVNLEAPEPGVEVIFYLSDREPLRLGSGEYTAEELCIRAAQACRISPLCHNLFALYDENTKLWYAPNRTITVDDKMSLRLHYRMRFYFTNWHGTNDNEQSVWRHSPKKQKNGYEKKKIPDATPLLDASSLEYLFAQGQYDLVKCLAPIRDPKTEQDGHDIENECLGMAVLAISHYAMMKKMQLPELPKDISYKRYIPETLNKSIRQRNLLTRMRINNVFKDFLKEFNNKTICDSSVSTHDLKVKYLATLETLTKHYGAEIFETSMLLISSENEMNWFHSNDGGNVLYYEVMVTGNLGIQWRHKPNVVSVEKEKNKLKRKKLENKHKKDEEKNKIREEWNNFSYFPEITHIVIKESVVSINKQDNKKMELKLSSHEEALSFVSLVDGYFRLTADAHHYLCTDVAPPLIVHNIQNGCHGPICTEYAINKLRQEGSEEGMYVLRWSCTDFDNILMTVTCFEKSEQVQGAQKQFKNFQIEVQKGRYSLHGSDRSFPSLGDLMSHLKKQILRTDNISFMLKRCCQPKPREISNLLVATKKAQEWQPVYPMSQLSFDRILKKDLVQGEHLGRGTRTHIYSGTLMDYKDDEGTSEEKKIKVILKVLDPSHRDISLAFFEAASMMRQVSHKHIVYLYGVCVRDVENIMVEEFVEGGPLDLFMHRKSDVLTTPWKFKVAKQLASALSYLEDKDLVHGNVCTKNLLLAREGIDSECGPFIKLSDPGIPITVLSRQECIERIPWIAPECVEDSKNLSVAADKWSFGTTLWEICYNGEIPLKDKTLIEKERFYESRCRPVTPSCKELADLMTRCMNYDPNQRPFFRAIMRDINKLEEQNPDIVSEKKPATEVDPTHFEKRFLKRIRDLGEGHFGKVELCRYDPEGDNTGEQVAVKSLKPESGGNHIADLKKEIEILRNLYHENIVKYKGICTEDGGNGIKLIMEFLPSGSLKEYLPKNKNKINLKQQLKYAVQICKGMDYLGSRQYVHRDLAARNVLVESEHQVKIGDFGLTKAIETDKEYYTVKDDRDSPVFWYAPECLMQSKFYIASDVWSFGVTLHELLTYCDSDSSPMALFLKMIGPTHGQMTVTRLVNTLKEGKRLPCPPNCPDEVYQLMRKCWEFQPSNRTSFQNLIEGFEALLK

[30] = molecular target: CDK7/Cyclin H/MNAT1 (Homo sapiens) (UniProt P51946+P50613+P51948); assay: Inhibition of CDK7/cyclin H/MNAT1 (unknown origin) at 1 uM by selectscreen kinase profiling assay in presence of ATP; assay type: protein-complex assay
[31] = molecular target: T1, Cyclin-dependent kinase 5/CDK5 activator 1 (Homo sapiens); assay: Inhibition of CDK5/p25 (unknown origin) at 1 uM by selectscreen kinase profiling assay in presence of ATP; assay type: protein-complex assay
[32] = Cell cycle arrest in human GSC derived from ANGM-CSS cells assessed as accumulation at G2/M phase at 1 uM after 7 days by based fluorescent reagent based cell analysis (reference value: 23.5%); assay type: functional
[33] = molecular target: MAP kinase-activated protein kinase 2 (Homo sapiens) (UniProt P49137); assay: Inhibition of MAPKAPK2 (unknown origin) at 1 uM by selectscreen kinase profiling assay in presence of ATP
[34] = Cell cycle arrest in human GSC derived from ANGM-CSS cells assessed as accumulation at S phase at 1 uM after 7 days by based fluorescent reagent based cell analysis (reference value: 1.9%); assay type: functional
[35] = molecular target: T2, Glycogen synthase kinase-3 alpha; assay: Inhibition of GSK3alpha (unknown origin) at 1 uM by selectscreen kinase profiling assay in presence of ATP
[36] = molecular target: Cyclin-dependent kinase 1/cyclin B1 (Homo sapiens) (UniProt P06493+P14635); assay: Inhibition of CDK1/cyclin B (unknown origin) at 1 uM by selectscreen kinase profiling assay in presence of ATP; assay type: protein-complex assay

## COc1cc2c(cc1OC)CN(CC(=O)Nc1ccc3c(c1)/C(=C/c1cnc[nH]1)C(=O)N3)CC2
[1]
  Activity: Active
[2]
  inhibition: 12%
[3]
  inhibition: 4%
[4]
  inhibition: 5%
[5]
  GI50: 7.5 µM
[6]
  Activity: 6.77%
[7]
  inhibition: inactive
[8]
  Activity: 1.74%
[9]
  inhibition: 11%
[10]
  inhibition: -6%
[11]
  inhibition: 37%
[12]
  Activity: Active
[13]
  inhibition: 8%
[14]
  inhibition: 5%
[15]
  GI50: 7.73 µM
[16]
  inhibition: 5%
[17]
  inhibition: 40%
[18]
  inhibition: -5%
[19]
  IC50: 0.884 µM
[20]
  inhibition: 30%
[21]
  GI50: 16.7 µM
[22]
  inhibition: -4%
[23]
  Activity: Active
[24]
  IC50: 0.272 µM
[25]
  Activity: 11.87%
[26]
  GI50: 14.6 µM
[27]
  Activity: Active
[28]
  GI50: 29.9 µM
[29]
  inhibition: -1%
[30]
  inhibition: -8%
[31]
  inhibition: 45%
[32]
  Activity: 27%
[33]
  inhibition: -2%
[34]
  Activity: 1%
[35]
  inhibition: 59%
[36]
  inhibition: 18%
